This is an account of results in PubChem BioAssay (NCI).

Among the test systems are DLD-1 colon; SNB-78 CNS; KM20L2 colon; NCI/ADR-RES ovarian; MDA-N; T-47D breast; MDA-MB-231 breast; BT-549 breast; P388 leukemia; SN12K1 renal; P388/ADR leukemia.
Assay in all cases: NCI tumour cell line growth inhibition, 48 h

Where “and” joins values, the source holds several entries; their conditions need not be identical. Equal values may be shown once.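 Where inhibition never reached the appropriate level, the endpoint shown equals the highest concentration tested. Otherwise, values were interpolated linearly from a five-concentration, 48-hour dose response in 96-well plates. GI50 = concentration required for 50% inhibition of growth. TGI denotes the concentration required for complete inhibition of growth.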

For `N#Cc1cc([N+](=O)[O-])ccc1NC(=O)C(=O)C(C(=O)/C=C/c1ccccc1)C1OC(=O)c2ccccc21` (stereo not drawn), the TGI with DLD-1 colon, in the test on SNB-78 CNS and in the test with KM20L2 colon was above 100 µM in each case.
`CC(C)=CC(=O)Cc1nc2cc(C)c(C)cc2[nH]c1=O`: the TGI in the test with DLD-1 colon, in the test on SNB-78 CNS and in the test on KM20L2 colon was above 100 µM each time.
`N.N.NCCCCN.O=C([O-])C1(C(=O)[O-])CCC1.O=C([O-])C1(C(=O)[O-])CCC1.[Pt+4].[Pt+4]`: the GI50 with DLD-1 colon, in the test with SNB-78 CNS and in the test with KM20L2 colon was above 100 µM each time. Moreover, the TGI in the test with DLD-1 colon, in the test with SNB-78 CNS and in the test with KM20L2 colon was above 100 µM each time.
Consider `NCCNC(=S)S`, for which the TGI in the test with NCI/ADR-RES ovarian, in the test on MDA-N, in the test on T-47D breast, with MDA-MB-231 breast and in the test with BT-549 breast was above 100 µM in each case.
On to `COc1ccc2nc3ccccc3c(NCCCCCCN(C)CCCl)c2c1`, for which the TGI with SNB-78 CNS was determined as 4.79 µM; in the test with KM20L2 colon, 2.54 µM.
Consider `CC1C=CC(=O)C(n2cc(F)c(=O)[nH]c2=O)O1` (stereo not drawn), for which the TGI in the test on DLD-1 colon was 45.3 µM; in the test on SNB-78 CNS, 83.8 µM; with KM20L2 colon, 37.5 µM.
With `Cc1ccccc1CN1CC=c2ccccc2=N1`, the TGI with DLD-1 colon, in the test on SNB-78 CNS and in the test with KM20L2 colon was above 100 µM in each case.
Consider `CC1=C(C(=O)NCc2ccccc2)C(c2ccccc2[N+](=O)[O-])C(C(=O)NCc2ccccc2)=C(C)N1`, for which the TGI in the test with DLD-1 colon was determined as 20.3 µM; in the test on SNB-78 CNS it was 42.6 µM; with KM20L2 colon it was 30.3 µM.
With `Cc1ccccc1C(C#N)C(=O)C(=O)Nc1cccc(Cl)c1` (stereo not drawn), the TGI with DLD-1 colon, in the test with SNB-78 CNS and with KM20L2 colon was above 100 µM throughout.
For `c1ccc(CN(Cn2cccn2)Cn2cccn2)nc1`, the TGI in the test on DLD-1 colon, with SNB-78 CNS and with KM20L2 colon was above 100 µM in each case.
For `Nc1ccn(C2CC(CO)C(O)C2O)c(=O)n1` (stereo not drawn), the TGI in the test on DLD-1 colon, with SNB-78 CNS and in the test with KM20L2 colon was above 57.7 µM throughout.
As for `CN(C)CCNC(=O)c1cccc2[nH]c(-c3ccccc3)nc12`, the results for the TGI in the test on DLD-1 colon and with SNB-78 CNS were 39.2 µM and above 100 µM, respectively.
Regarding `NCc1nnn(Cc2ccccc2)c1N`, the TGI with NCI/ADR-RES ovarian, in the test on MDA-N, in the test on T-47D breast, in the test with MDA-MB-231 breast and with BT-549 breast was above 100 µM in each case.
As for `CO[C@@H]1[C@H](OC(=O)NC(=O)CCl)CC[C@]2(CO2)[C@H]1[C@@]1(C)O[C@@H]1CC=C(C)C`, the GI50 was 27.9 µM in the test on NCI/ADR-RES ovarian; 5.1 µM with DLD-1 colon; 4.03 µM in the test with T-47D breast; 4.28 µM in the test on MDA-MB-231 breast; 16.8 µM in the test with BT-549 breast. Besides, the TGI with NCI/ADR-RES ovarian is 62.4 µM and 111 µM; in the test on DLD-1 colon, 42 µM; with MDA-N, 27.3 µM; in the test with T-47D breast it was 41.9 µM and 68.9 µM; in the test with MDA-MB-231 breast, 38.1 µM and 12.7 µM; in the test on BT-549 breast, 37.6 µM and 59.1 µM. This compound yielded a TGI in the test with KM20L2 colon of 41.5 µM.
Regarding `O=c1cnn2c(n1)sc1ccc3ccccc3c12`, the TGI in the test with DLD-1 colon, with SNB-78 CNS and with KM20L2 colon was above 100 µM in each case.
With `COC(=O)C(Cl)=C1CC1`, the TGI is 64.1 µM in the test with DLD-1 colon, above 100 µM in the test with SNB-78 CNS and above 100 µM in the test on KM20L2 colon.
`O=[N+]([O-])c1nccn1COCCF`: the TGI with DLD-1 colon, in the test with SNB-78 CNS and in the test on KM20L2 colon was above 100 µM throughout.
Turning to `COC(=O)C1=C(CO)C2C=CC1C2` (stereo not drawn), the TGI in the test with DLD-1 colon, in the test with SNB-78 CNS and in the test on KM20L2 colon was above 100 µM in each case.
`Cc1ccc(Cl)c(NC(=O)C(=O)C(C(=O)c2ccncc2)C2OC(=O)c3ccccc32)c1` (stereo not drawn): the TGI in the test on DLD-1 colon and in the test with SNB-78 CNS was above 100 µM each time.
Take `O=C1C(=O)C(Br)(Br)C(Br)=C1Br`: the TGI in the test on DLD-1 colon is 41.4 µM; with KM20L2 colon, 30.7 µM.
Turning to `Cc1cc(Cl)cc2c1NC(=O)C2(O)C(C)C(=O)c1ccc(Cl)cc1` (stereo not drawn), the TGI with DLD-1 colon, in the test on SNB-78 CNS and in the test with KM20L2 colon was above 100 µM in each case.
As for `COc1ccc(/C=C2\CCC(C)(CN(C)C)C2=O)cc1` (stereo not drawn), the TGI in the test with DLD-1 colon, in the test with SNB-78 CNS and in the test on KM20L2 colon was above 100 µM in each case.
With `CN(C)CCCc1c[nH]c2ccccc12`, the TGI with NCI/ADR-RES ovarian, in the test with MDA-N, in the test with T-47D breast, with MDA-MB-231 breast and with BT-549 breast was above 100 µM throughout.
With `O=c1c2ccccc2c2nc3ccccc3nc2n1C1CCCCC1`, the TGI with SNB-78 CNS and in the test on KM20L2 colon was above 100 µM each time.
As for `CCN(CC)C(=O)COc1ccc(Br)cc1Br`, the TGI with DLD-1 colon, in the test with SNB-78 CNS and with KM20L2 colon was above 100 µM in each case.
As to `Nc1nc2nc[nH]c2c(=O)[nH]1`, the TGI in the test with DLD-1 colon, in the test on SNB-78 CNS and with KM20L2 colon was above 100 µM throughout.
With `N#CCCN(c1ccc(-c2nnc(NC(=O)CNNC(=O)CC(=O)Nc3ccccc3)s2)cc1)S(=O)(=O)c1ccccc1`, in the test on DLD-1 colon, the TGI is above 100 µM.
Turning to `O=C(COc1ccccc1)NS(=O)(=O)c1ccccc1`, the TGI with DLD-1 colon, in the test with SNB-78 CNS and in the test with KM20L2 colon was above 100 µM in each case.
As for `C[C@@]12CCC(=O)C=C1CC[C@H]1C2=CC[C@]2(C)C1CC[C@@]2(C)O` (stereo partly drawn), the TGI in the test with NCI/ADR-RES ovarian, in the test with MDA-N, in the test with T-47D breast, in the test with MDA-MB-231 breast and in the test with BT-549 breast was above 100 µM throughout.
Take `O=C1OC(O)C(Oc2ccc(Cl)cc2)=C1Cl` (stereo not drawn): the TGI in the test with DLD-1 colon, in the test with SNB-78 CNS and with KM20L2 colon was above 100 µM each time.
The compound `O=C(Nc1nc2ncn(CC(COc3ccccc3)OC(=O)c3ccccc3)c2c(=O)[nH]1)c1ccccc1` (stereo not drawn) had a TGI in the test with KM20L2 colon above 100 µM.
For `CC(C)(C)c1ccc(C(O)c2ccc(C(C)(C)C)cc2)cc1`, the TGI turned out to be 28.3 µM in the test on DLD-1 colon and 32.5 µM in the test with KM20L2 colon.
Take `CSc1nc2sc3cc(Cl)ccc3n2c(=N)c1C#N`: the GI50 in the test with NCI/ADR-RES ovarian was above 42.2 µM; in the test on T-47D breast it was 23.7 µM; in the test on MDA-MB-231 breast it was above 85.7 µM; in the test on BT-549 breast, 25.4 µM. Moreover, the TGI in the test with NCI/ADR-RES ovarian, in the test on T-47D breast, with MDA-MB-231 breast and in the test with BT-549 breast was above 100 µM each time.
Regarding `CN(C)CC1(C)CC/C(=C\c2ccccc2)C1=O` (stereo not drawn), the TGI in the test on DLD-1 colon, in the test with SNB-78 CNS and in the test with KM20L2 colon was above 100 µM each time.
Take `CC12CCC[C@@](C)(C(=O)OC3OC(CO)C(O)C(O)C3O)[C@H]1CCC13CC4CC(OC4(CO)[C@H]1O)[C@@H]23` (stereo partly drawn): the TGI in the test on DLD-1 colon, in the test on SNB-78 CNS and in the test with KM20L2 colon was above 100 µM throughout.
With `CC(C)(C)C(=O)C1CC(=O)c2ccccc2C1=O` (stereo not drawn), the TGI in the test with DLD-1 colon was above 100 µM; in the test with SNB-78 CNS, 90.7 µM; in the test with KM20L2 colon, above 100 µM.
On to `COc1cc2nc(Nc3cccc(F)c3)nc(Nc3cc(C)[nH]n3)c2cc1OC`, for which the GI50 in the test on NCI/ADR-RES ovarian is 1.6 µM; with T-47D breast, 1.36 µM; with MDA-MB-231 breast, 1.74 µM; with BT-549 breast, 1.68 µM. Further, the TGI is 3.64 µM in the test on NCI/ADR-RES ovarian, 4.05 µM in the test with T-47D breast, 3.42 µM in the test on MDA-MB-231 breast and 3.2 µM in the test with BT-549 breast.
For `O=C(/C=C\c1ccc(Cl)cc1Cl)c1cccs1`, the TGI is above 100 µM in the test on NCI/ADR-RES ovarian, 35.8 µM with MDA-N, 55.7 µM with T-47D breast and 40.5 µM in the test on MDA-MB-231 breast.
On to `NC1=N/C(=C2/CCNC(=O)c3[nH]c(Br)cc32)C(=O)N1`, for which, in the test on NCI/ADR-RES ovarian, the GI50 is 11.9 µM and > 43.3 µM. Besides, the TGI with NCI/ADR-RES ovarian was above 100 µM; with DLD-1 colon, above 100 µM; in the test on MDA-N, above 43.3 µM; in the test with T-47D breast, 51.8 µM; in the test with MDA-MB-231 breast, 16.2 µM; in the test on SNB-78 CNS, above 100 µM. Besides, the TGI is 86.1 µM in the test on P388 leukemia; 53.3 µM with BT-549 breast; above 100 µM in the test on SN12K1 renal; above 100 µM in the test with KM20L2 colon; above 100 µM in the test on P388/ADR leukemia.
Consider `NS(=O)(=O)c1ccc(CCN=C=S)cc1`, for which the GI50 is 3.2 µM in the test on NCI/ADR-RES ovarian, 0.638 µM with T-47D breast, 2.03 µM with MDA-MB-231 breast and 2.03 µM with BT-549 breast. The TGI in the test on NCI/ADR-RES ovarian is 11.3 µM; with T-47D breast, 3.36 µM; in the test with MDA-MB-231 breast, 4.4 µM; in the test with BT-549 breast, 4.37 µM.
Regarding `COC(=O)CCC/C=C\C[C@H]1C=CC(=O)/C1=C/C[C@@H](O)C/C=C\CC(F)(F)F`, the GI50 in the test on NCI/ADR-RES ovarian is 2.32 µM; with T-47D breast, 3.06 µM; with MDA-MB-231 breast, 2.72 µM; with BT-549 breast, 2.12 µM. Further, the TGI was found to be 8.33 µM in the test with NCI/ADR-RES ovarian, 16.3 µM in the test on T-47D breast, 7.41 µM in the test with MDA-MB-231 breast and 5.37 µM in the test with BT-549 breast.
As for `O=C(Nc1c(O)[nH]c(=S)[nH]c1=O)c1ccc2ccccc2n1`, the TGI in the test with DLD-1 colon, with SNB-78 CNS and in the test on KM20L2 colon was above 100 µM each time.
Take `O=C1CCC2(CC1)SCCCS2`: the TGI in the test on DLD-1 colon and in the test on KM20L2 colon was above 100 µM throughout.
Consider `CCOC(=O)/C(=C/c1ccc(C#N)cc1)N(CC)CC`, for which the TGI with DLD-1 colon and in the test with SNB-78 CNS was above 100 µM each time.
As to `CCCc1nc2c(C)cc(-c3nc4ccccc4n3C)cc2n1Cc1ccc(-c2ccccc2C(=O)O)cc1`, the GI50 is 41.9 µM in the test with NCI/ADR-RES ovarian, 48.5 µM in the test with T-47D breast, 30.3 µM with MDA-MB-231 breast and 52.3 µM in the test on BT-549 breast. The TGI in the test with NCI/ADR-RES ovarian, in the test on T-47D breast, in the test with MDA-MB-231 breast and with BT-549 breast was above 100 µM in each case.
With `CC1OC(OCC2COC(O)(Oc3c(-c4ccc(O)c(O)c4)oc4cc(O)cc(O)c4c3=O)C(O)C2O)C(O)C(O)C1O` (stereo not drawn), the TGI in the test on DLD-1 colon, in the test with SNB-78 CNS and with KM20L2 colon was above 100 µM in each case.
For `NC(=S)N/N=C1/C(=O)N(c2ccc(Cl)cc2Cl)C(=O)C(=O)C1c1nc2ccccc2s1` (stereo not drawn), the TGI in the test with SNB-78 CNS and in the test with KM20L2 colon was above 100 µM each time.
